The record followed here is ChEMBL document CHEMBL2086309, “Discovery of liver selective non-steroidal glucocorticoid receptor antagonist as novel antidiabetic agents” (Bioorg Med Chem Lett, 2012).

Experiment [1] has as its target T1, Glucocorticoid receptor (Homo sapiens, UniProt P04150).
T1 sequence (P04150 whole entry): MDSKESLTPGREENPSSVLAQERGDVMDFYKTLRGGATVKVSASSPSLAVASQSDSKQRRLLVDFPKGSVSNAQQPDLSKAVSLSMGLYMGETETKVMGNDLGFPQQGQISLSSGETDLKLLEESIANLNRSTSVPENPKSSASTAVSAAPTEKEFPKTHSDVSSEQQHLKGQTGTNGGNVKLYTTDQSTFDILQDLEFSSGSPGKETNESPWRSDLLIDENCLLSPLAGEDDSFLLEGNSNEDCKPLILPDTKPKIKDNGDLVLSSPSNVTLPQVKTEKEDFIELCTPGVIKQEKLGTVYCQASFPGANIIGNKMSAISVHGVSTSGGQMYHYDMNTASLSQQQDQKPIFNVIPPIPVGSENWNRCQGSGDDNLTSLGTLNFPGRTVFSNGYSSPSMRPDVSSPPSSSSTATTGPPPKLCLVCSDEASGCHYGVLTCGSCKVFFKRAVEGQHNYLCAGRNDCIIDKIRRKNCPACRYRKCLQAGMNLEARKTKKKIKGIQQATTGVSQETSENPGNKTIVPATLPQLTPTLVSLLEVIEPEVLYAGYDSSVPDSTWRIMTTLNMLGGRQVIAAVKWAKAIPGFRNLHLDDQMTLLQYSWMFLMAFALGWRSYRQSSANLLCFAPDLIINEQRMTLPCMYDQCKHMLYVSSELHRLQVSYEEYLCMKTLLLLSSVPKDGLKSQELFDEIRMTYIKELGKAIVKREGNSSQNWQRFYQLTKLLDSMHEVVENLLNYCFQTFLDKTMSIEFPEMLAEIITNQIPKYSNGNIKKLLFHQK
As to the kind of experiment: Displacement of [3H]dexamethasone from human glucocorticoid receptor expressed in baculovirus infected Sf9 cells after overnight incubation by scintillation counting. In general terms: Loss of bound radioactivity is the signal in a displacement assay; it reports binding, not function.

For experiment [2], the target named is T2, Glucocorticoid receptor (Rattus norvegicus, UniProt P06536).
T2 sequence (P06536 whole entry): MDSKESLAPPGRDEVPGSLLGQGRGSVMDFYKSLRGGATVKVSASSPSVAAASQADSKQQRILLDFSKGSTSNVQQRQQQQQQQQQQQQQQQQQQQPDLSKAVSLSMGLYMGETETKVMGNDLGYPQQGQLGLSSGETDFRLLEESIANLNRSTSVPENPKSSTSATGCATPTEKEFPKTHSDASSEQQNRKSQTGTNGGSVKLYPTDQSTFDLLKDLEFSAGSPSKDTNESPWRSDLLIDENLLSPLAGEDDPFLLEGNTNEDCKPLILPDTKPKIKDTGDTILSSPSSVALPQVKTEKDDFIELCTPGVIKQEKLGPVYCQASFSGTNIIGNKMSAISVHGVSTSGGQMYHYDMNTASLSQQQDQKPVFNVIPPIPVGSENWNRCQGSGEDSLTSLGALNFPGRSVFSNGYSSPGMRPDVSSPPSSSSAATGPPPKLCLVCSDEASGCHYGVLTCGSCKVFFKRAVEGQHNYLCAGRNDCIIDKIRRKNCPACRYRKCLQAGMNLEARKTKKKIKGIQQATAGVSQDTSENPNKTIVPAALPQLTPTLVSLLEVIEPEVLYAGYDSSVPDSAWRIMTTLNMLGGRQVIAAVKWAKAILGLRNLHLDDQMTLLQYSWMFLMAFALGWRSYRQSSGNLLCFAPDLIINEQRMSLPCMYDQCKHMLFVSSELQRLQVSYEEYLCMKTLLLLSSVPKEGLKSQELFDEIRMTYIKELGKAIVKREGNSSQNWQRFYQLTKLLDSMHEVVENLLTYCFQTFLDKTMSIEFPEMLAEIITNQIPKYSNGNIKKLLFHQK
As to the kind of experiment: Antagonist activity at glucocorticoid receptor in rat hepatocytes assessed as inhibition of dexamethasone-induced […] expression incubated for 30 mins prior to dexamethasone-induction measured after 4 hrs by reporter gene assay. The class given is functional, cell-based, Hepatocyte.

Experiment [3] concerns the target T1, Glucocorticoid receptor. Description: Antagonist activity at human glucocorticoid receptor expressed in GRAF cells assessed as inhibition of dexamethasone-induced alkaline phosphatase expression after 48 hrs by reporter gene assay. The class given is functional, cell-based. (A reporter such as luciferase makes a cellular process visible.)
The target in experiment [4] is T2, Glucocorticoid receptor. As to the kind of experiment: Antagonist activity at glucocorticoid receptor in rat H4IIE cells assessed as inhibition of dexamethasone-induced […] expression after 24 hrs by reporter gene assay. The class given is functional, cell-based.
Experiment [5] concerns the target T1, Glucocorticoid receptor. As to the kind of experiment: Displacement of [3H]dexamethasone from human glucocorticoid receptor expressed in baculovirus infected Sf9 cells after 16-18 hrs by beta counting.
Experiment [6] concerns the target T1, Glucocorticoid receptor. As to the kind of experiment: Antagonist activity at human glucocorticoid receptor expressed in CHOK1 cells assessed as inhibition of dexamethasone-induced alkaline phosphatase expression after 46 hrs by reporter gene assay. The class given is functional, cell-based, CHO-K1.

SMILES strings stand for the structures. Some results are limits rather than exact numbers.

In experiment [1], `O=C(O)Cc1ccc(N(Cc2ccccc2)Cc2ccc(Oc3ccccc3)cc2)cc1` yielded an IC50 of 1910 nM.

`Cc1ccccc1Oc1ccc(CN(Cc2cc(F)cc(F)c2)c2c(Br)cc(CC(=O)O)cc2Br)cc1` returned an IC50 in experiment [1] of 1280 nM.

For the molecule `O=C(O)Cc1cc(Br)c(N(Cc2ccc(Oc3ccccc3F)cc2)Cc2cc(F)cc(F)c2)c(Br)c1`, the IC50 is 2100 nM in experiment [2], 145 nM in experiment [1] and 46 nM in experiment [3].

Molecule `c1ccc(CN(Cc2ccc(Oc3ccccc3)cc2)c2ccccc2)cc1` registered an IC50 in experiment [1] above 10000 nM.

For `COc1ccccc1Oc1ccc(CN(Cc2cc(F)cc(F)c2)c2c(Br)cc(CC(=O)O)cc2Br)cc1`, the IC50 in experiment [1] is 1260 nM.

In experiment [1], `COc1ccc(Oc2ccc(CN(Cc3cc(F)cc(F)c3)c3c(Br)cc(CC(=O)O)cc3Br)cc2)c(OC)c1` showed an IC50 of 1600 nM.

`O=C(O)Cc1cc(Br)c(N(Cc2ccc(Oc3ccc(Br)cc3Br)cc2)Cc2cc(F)cc(F)c2)c(Br)c1`: the results for the concentration for half-maximal inhibition (IC50) in experiment [2], in experiment [1] and in experiment [3] were above 10000 nM, 879 nM and 1420 nM, respectively.

For the molecule `O=C(O)Cc1cc(Br)c(N(Cc2ccc(Oc3ccc(Cl)cc3Cl)cc2)Cc2cc(F)cc(F)c2)c(Br)c1`, the IC50 was determined as 2600 nM in experiment [2], 96 nM in experiment [1] and 391 nM in experiment [3].

On to `Cc1ccc(Oc2ccc(CN(Cc3cc(F)cc(F)c3)c3c(Br)cc(CC(=O)O)cc3Br)cc2)c(C)c1`, for which the IC50 in experiment [1] is 1640 nM.

Turning to `Cc1c(NS(C)(=O)=O)cccc1N(Cc1ccc(Oc2ccc(F)c(OCC(=O)O)c2)cc1)Cc1cc(F)cc(F)c1`, the results for the IC50 in experiment [2], in experiment [1] and in experiment [3] were 1880 nM, 4.6 nM and 432 nM, respectively.

As for `O=C(O)Cc1cc(Br)c(N(Cc2ccc(Oc3ccccc3Cl)cc2)Cc2cc(F)cc(F)c2)c(Br)c1`, the IC50 worked out at 3000 nM in experiment [2], 235 nM in experiment [1] and 512 nM in experiment [3].

With `O=C(O)Cc1cc(Br)c(N(Cc2ccccc2)Cc2ccc(Oc3ccccc3)cc2)c(Br)c1`, in experiment [1], the IC50 turned out to be 1200 nM.

In the case of `O=C(O)Cc1cc(Br)c(N(Cc2ccc(Oc3ccccc3Br)cc2)Cc2cc(F)cc(F)c2)c(Br)c1`, the IC50 is above 10000 nM in experiment [2], 801 nM in experiment [1] and 1170 nM in experiment [3].

Molecule `O=C(O)Cc1cc(Br)c(N(Cc2ccc(Oc3ccccc3)cc2)Cc2cccc(F)c2)c(Br)c1` returned an IC50 in experiment [1] of 820 nM.

As for `O=C(O)c1ccc(N(Cc2ccccc2)Cc2ccc(Oc3ccccc3)cc2)cc1`, the IC50 in experiment [1] is above 9000 nM.

On to `O=C(O)Cc1cc(Br)c(N(Cc2ccc(Oc3ccccc3C(F)(F)F)cc2)Cc2cc(F)cc(F)c2)c(Br)c1`, for which the IC50 in experiment [2] amounted to 3300 nM; in experiment [1], 298 nM; in experiment [3], 598 nM.

For the molecule `O=C(O)Cc1cc(Br)c(N(Cc2ccc(Oc3ccc(C(F)(F)F)cc3C(F)(F)F)cc2)Cc2cc(F)cc(F)c2)c(Br)c1`, the values for the IC50 in experiment [2], in experiment [1] and in experiment [3] were 2900 nM, 111 nM and 421 nM, respectively.

Regarding `O=C(O)Cc1cc(Br)c(N(Cc2ccc(Oc3ccccc3)cc2)Cc2cc(F)cc(F)c2)c(Br)c1`, the IC50 in experiment [2] is 3900 nM; in experiment [1] it was 722 nM; in experiment [3], 1050 nM.

Take `COc1cc(C(=O)c2cccc(C)c2)c(Oc2c(Br)cc(CC(=O)O)cc2Br)cc1C(C)C`: the IC50 in experiment [2] worked out at 2490 nM; in experiment [4] it was 2500 nM; in experiment [1] it was 20 nM; in experiment [5], 19 nM; in experiment [3] it was 410 nM; in experiment [6], 400 nM.

By IC50 is commonly meant the concentration that inhibits the measured activity by half.
